According to patent US10392368B2, “Pyrazolo and triazolo bicyclic compounds as JAK kinase inhibitors” (THERAVANCE BIOPHARMA R&D IP, LLC, priority 2017, dated 2019):
Where two headings read alike, the source gives them in different places.

How the values were obtained:
[1] = target: T1, JAK1 (Homo sapiens, UniProt P23458); assay: Biochemical JAK1 kinase assay (LanthaScreen); conditions: for Ki: read-out: JAK 1 (pKi) (converted)
T1 construct: GST; purchased Life Technologies
Procedure, shortened: (§1)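 TR-FRET read-out: terbium anti-pSTAT1 (pTyr701) antibody, 2 nM, with 10 mM EDTA quench, emission ratio 520/495 nm. GST-JAK phosphorylates GFP-STAT1 peptide for 1 h at ambient temperature after 1 h compound pre-incubation. pIC50 from dose-response converted to pKi by Cheng-Prusoff.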

[2] = system: IL-2 stimulated pSTAT5 in Tall-1 T cells; assay: Cellular JAK3 potency assay: inhibition of IL-2 stimulated pSTAT5 in Tall-1 T cells; format: cell-based, human; conditions: for IC50: Homo sapiens, read-out: Tall-1 (pIC50) (converted)
Procedure, shortened: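 Tall-1 human T cells (45,000/well) in phenol red-free DMEM with 10% FBS were preincubated with compound 1 h at 37 °C, then stimulated with IL-2 (final 300 ng/ml) for 30 min. Lysate pSTAT5 read by AlphaLisa; IC50 from inhibition curves, reported as pIC50 (mean±SD).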

[3] = target: T2, JAK3 (Homo sapiens, UniProt P52333); assay: Biochemical JAK3 kinase assay (LanthaScreen); set-up: GST; purchased Life Technologies; conditions: for Ki: read-out: JAK 3 (pKi) (converted)
T2 sequence (P52333 1-1124): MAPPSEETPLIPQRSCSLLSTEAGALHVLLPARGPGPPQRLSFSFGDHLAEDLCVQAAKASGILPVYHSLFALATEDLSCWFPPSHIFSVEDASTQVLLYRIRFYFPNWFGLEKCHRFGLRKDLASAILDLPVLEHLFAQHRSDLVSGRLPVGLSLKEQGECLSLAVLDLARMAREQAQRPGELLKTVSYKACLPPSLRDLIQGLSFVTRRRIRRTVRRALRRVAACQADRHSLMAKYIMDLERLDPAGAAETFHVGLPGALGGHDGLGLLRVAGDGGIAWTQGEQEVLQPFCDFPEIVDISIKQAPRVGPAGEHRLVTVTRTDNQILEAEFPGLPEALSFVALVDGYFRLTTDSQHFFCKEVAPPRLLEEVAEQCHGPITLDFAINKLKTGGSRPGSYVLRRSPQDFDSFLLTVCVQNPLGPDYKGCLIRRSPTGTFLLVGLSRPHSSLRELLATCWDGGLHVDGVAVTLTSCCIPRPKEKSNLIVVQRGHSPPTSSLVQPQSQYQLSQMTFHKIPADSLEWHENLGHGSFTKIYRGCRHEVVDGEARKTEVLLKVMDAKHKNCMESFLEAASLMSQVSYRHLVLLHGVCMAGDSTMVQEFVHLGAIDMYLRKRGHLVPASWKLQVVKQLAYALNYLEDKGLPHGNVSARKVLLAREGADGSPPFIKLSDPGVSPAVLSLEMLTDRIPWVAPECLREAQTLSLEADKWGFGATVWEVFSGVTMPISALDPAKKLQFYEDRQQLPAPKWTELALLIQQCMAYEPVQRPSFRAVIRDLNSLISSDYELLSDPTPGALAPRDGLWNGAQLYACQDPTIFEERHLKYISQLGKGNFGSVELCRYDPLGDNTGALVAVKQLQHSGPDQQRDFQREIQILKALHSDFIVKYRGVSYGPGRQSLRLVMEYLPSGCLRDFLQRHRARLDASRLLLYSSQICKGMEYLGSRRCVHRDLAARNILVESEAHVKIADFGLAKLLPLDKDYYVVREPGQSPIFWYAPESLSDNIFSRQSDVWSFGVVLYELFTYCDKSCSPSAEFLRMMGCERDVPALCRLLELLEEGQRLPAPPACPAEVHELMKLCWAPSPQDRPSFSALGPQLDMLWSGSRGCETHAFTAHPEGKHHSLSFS
Procedure, shortened: as §1

[4] = target: T3, JAK2 (Homo sapiens, UniProt O60674); assay: Biochemical JAK2 kinase assay (LanthaScreen); conditions: for Ki: read-out: JAK 2 (pKi) (converted)
T3 construct: GST; purchased Life Technologies
Procedure, shortened: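 GST-tagged recombinant JAK2 pre-incubated 1 h at ambient temperature with compound and GFP-STAT1 peptide in HEPES pH 7.5/MgCl2 buffer, then ATP added for a 1 h reaction with 1% DMSO. TR-FRET read after EDTA and Tb-anti-pSTAT1 (pTyr701) addition; IC50 from 4-parameter fit, converted to pKi by Cheng-Prusoff.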

[5] = target: T4, Tyk2 (Homo sapiens, UniProt P29597); assay: Biochemical Tyk2 kinase assay (LanthaScreen); conditions: for Ki: read-out: Tyk 2 (pKi) (converted)
T4 construct: GST; purchased Life Technologies
Procedure, shortened: as §1

[6] = IL-2 stimulated pSTAT5 in Tall-1 T cells
[7] = selectivity: difference of pKi JAK3 and pKi JAK1
[8] = TALL-1, IL-2 stimulated pSTAT5 in Tall-1 T cells
[9] = TALL-1, IL-2 stimulated pSTAT5, Tall-1 T cells
[10] = selectivity JAK3 over JAK1, difference of pKi
[11] = IL-2 stimulated pSTAT5, Tall-1 T cells

T3 sequence (O60674 whole entry): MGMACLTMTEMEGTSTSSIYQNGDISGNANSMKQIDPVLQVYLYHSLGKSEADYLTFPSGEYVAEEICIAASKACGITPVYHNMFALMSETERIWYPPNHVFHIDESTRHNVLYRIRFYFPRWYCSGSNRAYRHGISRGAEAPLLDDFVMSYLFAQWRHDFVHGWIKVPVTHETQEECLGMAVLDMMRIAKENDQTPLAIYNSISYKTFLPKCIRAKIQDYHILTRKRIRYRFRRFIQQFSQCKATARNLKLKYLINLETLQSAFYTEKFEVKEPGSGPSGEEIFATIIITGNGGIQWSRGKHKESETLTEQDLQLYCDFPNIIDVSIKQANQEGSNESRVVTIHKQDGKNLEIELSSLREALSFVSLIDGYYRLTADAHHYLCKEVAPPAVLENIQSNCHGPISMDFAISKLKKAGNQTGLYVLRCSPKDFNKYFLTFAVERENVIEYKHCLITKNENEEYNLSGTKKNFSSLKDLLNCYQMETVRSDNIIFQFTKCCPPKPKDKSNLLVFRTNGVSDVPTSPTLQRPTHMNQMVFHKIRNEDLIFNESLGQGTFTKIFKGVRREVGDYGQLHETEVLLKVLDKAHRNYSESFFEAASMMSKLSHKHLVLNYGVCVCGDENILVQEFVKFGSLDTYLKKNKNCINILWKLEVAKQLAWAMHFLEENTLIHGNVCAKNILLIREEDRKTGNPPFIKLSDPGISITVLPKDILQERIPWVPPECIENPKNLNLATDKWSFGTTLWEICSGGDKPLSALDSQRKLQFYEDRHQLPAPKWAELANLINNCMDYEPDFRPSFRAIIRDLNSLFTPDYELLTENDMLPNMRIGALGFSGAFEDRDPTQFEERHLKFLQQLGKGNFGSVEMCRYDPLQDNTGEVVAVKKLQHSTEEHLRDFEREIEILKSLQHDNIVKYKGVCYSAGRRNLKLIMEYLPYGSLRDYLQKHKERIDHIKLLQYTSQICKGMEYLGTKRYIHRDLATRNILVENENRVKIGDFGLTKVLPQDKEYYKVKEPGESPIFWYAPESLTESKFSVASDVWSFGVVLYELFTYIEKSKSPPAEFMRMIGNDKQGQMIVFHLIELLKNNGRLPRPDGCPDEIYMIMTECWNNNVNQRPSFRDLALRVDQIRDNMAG
T1 sequence (P23458 whole entry): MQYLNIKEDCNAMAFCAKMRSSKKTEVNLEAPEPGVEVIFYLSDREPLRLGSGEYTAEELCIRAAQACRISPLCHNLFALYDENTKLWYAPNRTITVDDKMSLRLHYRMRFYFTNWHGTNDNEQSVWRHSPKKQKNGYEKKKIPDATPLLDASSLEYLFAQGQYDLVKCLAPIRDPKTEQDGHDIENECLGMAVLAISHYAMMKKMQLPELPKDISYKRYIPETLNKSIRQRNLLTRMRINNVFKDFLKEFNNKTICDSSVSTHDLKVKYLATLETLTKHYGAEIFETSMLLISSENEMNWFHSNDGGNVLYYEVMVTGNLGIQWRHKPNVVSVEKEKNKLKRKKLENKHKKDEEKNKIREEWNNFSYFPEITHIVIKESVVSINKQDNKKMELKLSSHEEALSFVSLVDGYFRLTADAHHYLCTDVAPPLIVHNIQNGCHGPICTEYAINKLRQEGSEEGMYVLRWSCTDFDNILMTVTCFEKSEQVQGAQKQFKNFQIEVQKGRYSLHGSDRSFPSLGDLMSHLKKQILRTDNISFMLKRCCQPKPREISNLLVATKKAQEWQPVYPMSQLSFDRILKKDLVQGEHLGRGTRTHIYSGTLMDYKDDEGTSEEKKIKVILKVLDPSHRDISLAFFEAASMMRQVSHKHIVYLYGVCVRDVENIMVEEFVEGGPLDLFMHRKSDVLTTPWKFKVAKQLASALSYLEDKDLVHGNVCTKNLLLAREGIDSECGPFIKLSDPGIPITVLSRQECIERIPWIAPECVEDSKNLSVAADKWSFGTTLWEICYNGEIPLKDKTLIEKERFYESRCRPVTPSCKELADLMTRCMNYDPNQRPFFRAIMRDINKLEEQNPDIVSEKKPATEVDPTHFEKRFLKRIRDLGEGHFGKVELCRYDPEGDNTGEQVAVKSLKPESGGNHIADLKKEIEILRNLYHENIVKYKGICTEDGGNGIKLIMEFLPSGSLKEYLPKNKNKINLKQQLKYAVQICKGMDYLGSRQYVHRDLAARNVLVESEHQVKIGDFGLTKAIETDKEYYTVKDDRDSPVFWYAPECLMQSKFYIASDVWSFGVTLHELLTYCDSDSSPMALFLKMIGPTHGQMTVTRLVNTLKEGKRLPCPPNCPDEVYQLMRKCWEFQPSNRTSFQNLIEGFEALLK
T4 sequence (P29597 whole entry): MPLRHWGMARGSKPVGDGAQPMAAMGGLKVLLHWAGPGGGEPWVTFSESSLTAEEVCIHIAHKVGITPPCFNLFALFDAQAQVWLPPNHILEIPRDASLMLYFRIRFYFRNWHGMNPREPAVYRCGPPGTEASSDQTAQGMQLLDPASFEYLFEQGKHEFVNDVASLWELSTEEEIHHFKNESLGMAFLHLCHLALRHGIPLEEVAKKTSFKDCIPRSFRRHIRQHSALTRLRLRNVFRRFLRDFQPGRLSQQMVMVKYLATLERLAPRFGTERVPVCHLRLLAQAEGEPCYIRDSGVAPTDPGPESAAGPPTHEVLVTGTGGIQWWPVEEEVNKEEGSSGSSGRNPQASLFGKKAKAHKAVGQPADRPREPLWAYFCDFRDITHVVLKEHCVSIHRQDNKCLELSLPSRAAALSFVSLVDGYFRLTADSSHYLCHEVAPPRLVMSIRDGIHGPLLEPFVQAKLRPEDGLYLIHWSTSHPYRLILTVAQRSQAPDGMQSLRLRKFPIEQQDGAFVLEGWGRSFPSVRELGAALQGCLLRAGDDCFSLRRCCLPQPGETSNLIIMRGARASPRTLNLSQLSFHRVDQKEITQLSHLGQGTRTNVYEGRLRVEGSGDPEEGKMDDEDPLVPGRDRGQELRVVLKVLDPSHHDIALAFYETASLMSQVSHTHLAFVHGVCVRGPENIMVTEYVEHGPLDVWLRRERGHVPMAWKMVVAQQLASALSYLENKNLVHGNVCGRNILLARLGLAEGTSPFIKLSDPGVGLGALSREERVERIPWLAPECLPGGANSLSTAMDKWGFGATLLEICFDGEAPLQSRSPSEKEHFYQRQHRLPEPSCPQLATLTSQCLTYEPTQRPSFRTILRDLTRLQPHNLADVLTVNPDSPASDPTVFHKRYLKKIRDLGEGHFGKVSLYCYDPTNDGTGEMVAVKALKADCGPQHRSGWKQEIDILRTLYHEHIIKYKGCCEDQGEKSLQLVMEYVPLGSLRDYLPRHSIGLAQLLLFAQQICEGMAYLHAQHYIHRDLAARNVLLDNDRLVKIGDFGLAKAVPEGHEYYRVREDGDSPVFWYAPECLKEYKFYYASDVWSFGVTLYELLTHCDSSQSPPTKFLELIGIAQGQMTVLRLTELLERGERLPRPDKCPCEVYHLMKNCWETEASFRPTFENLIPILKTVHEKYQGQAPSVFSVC

Row | Structure (SMILES) | JAK 1 (pKi) [1] | Tall-1 (pIC50) [2, 6] | JAK 3 (pKi) [3] | JAK3 (pKi)-JAK1 (pKi) [3, 7] | JAK 2 (pKi) [4] | Tyk 2 (pKi) [5] | Ki [1] | IC50 [2, 8] | Ki [3] | Ki [4] | Ki [5] | IC50 [2, 9] | JAK3 (pKi)-JAK1 (pKi) [3, 10] | Tall-1 (pIC50) [2, 11]
1 | CN(C)C/C=C/C(=O)N1CC(C(C)(C)Oc2cc(-c3ccc(O)cc3)cc3[nH]ncc23)C1 [Compound 3-24] | E (a pKi value of 7 or below (Ki of 100 nM or above)) | B (a pIC50 value between 6.7 (included) and 7.5 (IC50 between 200 nM and 32 nM)) | B (a pKi value between 9 and 10 (Ki between 1 nM and 0.1 nM)) | A (a value of 3 or above) | E (a pKi value of 7 or below (Ki of 100 nM or above)) | E (a pKi value of 7 or below (Ki of 100 nM or above)) | – | – | – | – | – | – | – | –
2 | C=CC(=O)N1CC(CN(C)c2cc(-c3ccc(O)cc3)cc3[nH]ncc23)C1 [Compound 4-1] | E (a pKi value of 7 or below (Ki of 100 nM or above)) | B (a pIC50 value between 6.7 (included) and 7.5 (IC50 between 200 nM and 32 nM)) | B (a pKi value between 9 and 10 (Ki between 1 nM and 0.1 nM)) | A (a value of 3 or above) | E (a pKi value of 7 or below (Ki of 100 nM or above)) | E (a pKi value of 7 or below (Ki of 100 nM or above)) | – | – | – | – | – | – | – | –
3 | C=CC(=O)N1CC[C@H](Oc2cc(-c3ccc(O)c(Cl)c3)cc3[nH]nc(SC)c23)C1 [Compound 1-41] | – | – | – | A (a value of 3 or above) | – | – | > 0.1 µM | 0.0316 to 0.2 µM | 0.0001 to 0.001 µM | > 0.1 µM | > 0.1 µM | – | – | –
4 | C=CC(=O)N1C[C@H](C(=O)Nc2cc(-c3ccc(O)cc3)cc3[nH]ncc23)OC[C@@H]1C [Compound 12-60] | – | – | – | – | – | – | > 0.1 µM | – | 0.0001 to 0.001 µM | > 0.1 µM | > 0.1 µM | 0.0316 to 0.2 µM | A (a value of 3 or above) | –
5 | CN(C)C/C=C/C(=O)N1CC(CN(C)c2cc(-c3ccc(O)c(F)c3)cc3[nH]ncc23)C1 [Compound 4-6] | E (a pKi value of 7 or below (Ki of 100 nM or above)) | B (a pIC50 value between 6.7 (included) and 7.5 (IC50 between 200 nM and 32 nM)) | B (a pKi value between 9 and 10 (Ki between 1 nM and 0.1 nM)) | A (a value of 3 or above) | E (a pKi value of 7 or below (Ki of 100 nM or above)) | E (a pKi value of 7 or below (Ki of 100 nM or above)) | – | – | – | – | – | – | – | –
6 | C=CC(=O)N1CC(Oc2cc(-c3ccc(O)cc3)cc3[nH]ncc23)C1 [Compound 5-2] | E (a pKi value of 7 or below (Ki of 100 nM or above)) | B (a pIC50 value between 6.7 (included) and 7.5 (IC50 between 200 nM and 32 nM)) | B (a pKi value between 9 and 10 (Ki between 1 nM and 0.1 nM)) | A (a value of 3 or above) | E (a pKi value of 7 or below (Ki of 100 nM or above)) | E (a pKi value of 7 or below (Ki of 100 nM or above)) | – | – | – | – | – | – | – | –
7 | C=CC(=O)N1CC(COc2cc(-c3ccc(O)cc3)cc3[nH]ncc23)C1 [Compound 3-1] | – | – | – | A (a value of 3 or above) | – | – | > 0.1 µM | < 0.0316 µM | 0.0001 to 0.001 µM | > 0.1 µM | > 0.1 µM | – | – | –
8 | C=CC(=O)N1CC(C)(COc2nc(-c3ccc(O)c(Cl)c3)cc3[nH]ncc23)C1 [Compound 3-97] | E (a pKi value of 7 or below (Ki of 100 nM or above)) | A (a pIC50 value≥7.5 (IC50≤32 nM)) | B (a pKi value between 9 and 10 (Ki between 1 nM and 0.1 nM)) | B (a value of 2.3 to 3) | E (a pKi value of 7 or below (Ki of 100 nM or above)) | E (a pKi value of 7 or below (Ki of 100 nM or above)) | – | – | – | – | – | – | – | –
9 | C=CC(=O)N1CC2(CC(Oc3nc(-c4ccc(O)c(F)c4)nc4[nH]ncc34)C2)C1 [Compound 15-10] | E (a pKi value of 7 or below (Ki of 100 nM or above)) | – | A (a pKi value≥10 (Ki≤0.1 nM)) | – | E (a pKi value of 7 or below (Ki of 100 nM or above)) | E (a pKi value of 7 or below (Ki of 100 nM or above)) | – | – | – | – | – | – | A (a value of 3 or above) | A (a pIC50 value≥7.5 (IC50≤32 nM))
10 | C=CC(=O)N1CC(CSc2cc(-c3ccc(O)c(Cl)c3)nc3[nH]ncc23)C1 [Compound 13-1] | E (a pKi value of 7 or below (Ki of 100 nM or above)) | – | B (a pKi value between 9 and 10 (Ki between 1 nM and 0.1 nM)) | – | E (a pKi value of 7 or below (Ki of 100 nM or above)) | E (a pKi value of 7 or below (Ki of 100 nM or above)) | – | – | – | – | – | – | A (a value of 3 or above) | B (a pIC50 value between 6.7 (included) and 7.5 (IC50 between 200 nM and 32 nM))
11 | CN(C)C/C=C/C(=O)N1CC(COc2cc(-c3cc(F)c(O)cc3F)cc3[nH]ncc23)C1 [Compound 18-3] | – | – | – | – | – | – | 0.01 to 0.1 µM | – | < 0.0001 µM | 0.01 to 0.1 µM | > 0.1 µM | < 0.0316 µM | B (a value of 2.3 to 3) | –
12 | C=CC(=O)N1CCSC(C(=O)Nc2cc(-c3ccc(O)cc3)cc3[nH]ncc23)C1 (stereo not drawn) [Compound 12-43] | E (a pKi value of 7 or below (Ki of 100 nM or above)) | – | – | – | D (a pKi value between 7 and 8 (Ki between 100 nM and 10 nM)) | E (a pKi value of 7 or below (Ki of 100 nM or above)) | – | – | < 0.0001 µM | – | – | – | A (a value of 3 or above) | A (a pIC50 value≥7.5 (IC50≤32 nM))
13 | C=CC(=O)N1CC[C@H](Oc2cc(-c3cc(F)c(O)cc3C)cc3[nH]ncc23)C1 [Compound 1-16] | – | – | – | B (a value of 2.3 to 3) | – | – | > 0.1 µM | 0.0316 to 0.2 µM | 0.0001 to 0.001 µM | 0.01 to 0.1 µM | > 0.1 µM | – | – | –
14 | C=CC(=O)N1CCC(Sc2cc(-c3ccc(O)cc3)cc3[nH]ncc23)CC1 [Compound 12-4] | – | – | – | – | – | – | > 0.1 µM | – | 0.0001 to 0.001 µM | > 0.1 µM | > 0.1 µM | 0.0316 to 0.2 µM | A (a value of 3 or above) | –
